The values below are quoted from earlier work in patent US20210330900A1, “TARGETED ADMINISTRATION TO THE OROPHARYNX OF VISCOUS OR DRY POWDER FLUTICASONE PROPIONATE AND RELATED CORTICOSTEROIDS FOR THE TREATMENT OF EOSINOPHILIC ESOPHAGITIS (EoE)” (Topical Sinus Therapeutics, Inc., priority 2020, published 2021).

With `C[C@@H]1C[C@H]2[C@@H]3C[C@H](F)C4=CC(=O)C=C[C@]4(C)[C@@]3(F)[C@@H](O)C[C@]2(C)[C@@]1(O)C(=O)SCF` [Fluticasone], the gastrointestinal absorption result (compared with other corticosteroids) is recorded as “exceptionally low”. Further, for the setting “into a single inactive metabolite, after gastrointestinal absorption”, the “drug inactivated by 1st pass hepatic metabolism” value was 99%.
